Reference: patent US20100003679A1, “ASSESSMENT OF CELLULAR COMPOSITION AND FRACTIONAL VIABILITY AND USES THEREOF” (University of Miami, priority 2006, published 2010)

Experiments:
Assay type in all cases: cell-based
[1] = system: β-cells (NG bright) of human islets; assay: β-cell apoptosis after delivery of noxious stimuli (TMRE staining in NG bright subset, FACS); conditions: SNP 0.5 mM 18 h, H2O2 200 μM 18 h, IL-1β 50 U/ml alone or with TNF-α 1000 U/ml and IFN-γ 1000 U/ml 24 h, vs absence of stimulus
Protocol: Determination of fractional β-cell viability. For assessment of apoptosis, single cell suspensions were incubated with 1 μM Newport Green PDX acetoxymethylether (NG; Molecular Probes) and 100 ng/ml of tetramethylrhodamine ethyl ester (TMRE; Molecular Probes) for 30 min at 37° C. in PBS without Ca^2+ and Mg^2+. Newport Green allows for the definition of cell subsets according to zinc content (18). TMRE selectively binds to mitochondrial membranes, allowing for detection of apoptosis (that results in decreased staining) (19-20). After washing, cells were stained with 7-aminoactinomycin D (7-AAD; Molecular Probes), which binds to DNA when cell membrane permeability is altered after cell death. Cell suspensions were analyzed (minimum 3.0×10^4 events) using a FACScan cytometer (Becton Dickinson, Mountain View, Calif.) with the CellQuest software.
Delivery of pro-apoptotic stimuli to islet cells: Islets were treated with selected compounds to induce apoptosis. The nitric oxide (NO) donor sodium nitroprusside (Baxter Healthcare Corporation, Deerfield, Ill.) was used at 0.5 mM for 18 hours. Hydrogen peroxide (H2O2; Sigma) was used at 200 μM for 18 hours. IL-1-β (50 U/ml) alone or in combination with TNF-α (1000 U/ml) and IFN-γ (1000 U/ml) was used for 24 hours. […]

[2] = system: β-cells (NG bright) of human islets; assay: Simultaneous β-cell/PDC viability by FACS after noxious stimuli: β-cell subset; conditions: human islet cells, 24 h; SNAP 0.5 mM; H2O2 200 μM; IL-1β 50 U/ml + TNF-α 1,000 U/ml + IFN-γ 1,000 U/ml; vs absence of stimulus
Protocol: (§1) Assessment of PDC-specific viability: Single cell suspensions were incubated for 30 min at 37° C. in phosphate buffered saline (PBS) without Ca^2+ and Mg^2+ with Newport Green PDX acetoxymethylether (NG; […]) and tetramethylrhodamineethylester (TMRE; 100 ng/ml; both from Molecular Probes). Cells were incubated with anti-CA19-9 antibody (1:100) for 15 min followed by goat anti-mouse antibody (Alexa-647). After washing, cells were stained with 7-aminoactinomycin D (7-AAD; Molecular Probes), a marker of cell death. Cell suspensions were analyzed (minimum 3.0 104 events) using a FACScan cytometer with the CellQuest-pro software (Becton Dickinson, Mountain View, Calif.). We have evaluated apoptosis selectively in the NG^bright and CA19-9+ cells according to the scheme in FIGS. 19A-E. After counting, dead cells (7-AAD+) were excluded from further analysis, live β-cells (NG^bright) and PDC (CA19-9^+) were analyzed for mitochondrial membrane potential (TMRE), which allows discriminating between healthy (TMRE^+) and apoptotic (TMRE^−) cells. […]

[3] = system: PDC (CA19-9+ ductal cells) of human islet preparations; assay: Simultaneous β-cell/PDC viability by FACS after noxious stimuli: ductal cell subset; conditions: 24 h, SNAP 0.5 mM, H2O2 200 μM, IL-1β 50 U/ml + TNF-α 1,000 U/ml + IFN-γ 1,000 U/ml, vs absence of stimulus
Protocol: as §1

Compound | percentage of apoptotic β-cells (TMRE−, NG bright) [1] | apoptosis by TMRE staining in β-cell subset [2] | apoptosis by TMRE staining in ductal cell (PDC) subset [3]
IL-1β: cytokine used as pro-apoptotic stimulus on islets | increase in the percentage of apoptotic β-cells | – | –
CC(=O)NC(C(=O)O)C(C)(C)SN=O (racemic) [SNAP, S-Nitroso-N-acetyl-DL-penicillamine] | – | increased apoptosis | increased apoptosis
OO [H2O2, Hydrogen peroxide] | increase in the percentage of apoptotic β-cells | increased apoptosis | increased apoptosis
